Columns and labels:
Experiment in all cases: Combined drug treatment cell viability, CellTiter-Glo assay (Example 1)
Format in all cases: cell-based
Details in all cases: 3 days
TMD8 = system: TMD8
Method: (§1) DLBCL cells at either 1×10^4 cells or 2×10^4 cells were plated onto each well of a 96-W plate (Table 1).
(§2) The stock solutions for the IDH1 inhibitor AGI5198 and the MALT1 inhibitor MI-2 were each prepared at 50 mM concentration.
(§3) The 96-W plate was then incubated for 3 days. Cell viability was examined using a CellTiter-Glo assay.
(§4) A 40 μL of CellTiter-Glo reagent was added directly into each well of the 96-W plate. The plate was then shaken on a Shaker (Labsystem Wellmix) at speed 5 for 10-20 min at room temperature. Next, 100 μL of the mixed medium was transferred to a white, non-transparent, flat bottom 96-W plate for assaying. A Flexstation 3 luminometer was used for detecting and measuring the luminescent signals. Measurements were taken at room temperature.
(§5) In general, the combination is described as synergistic (CI<1), additive (CI=1), or antagonistic (CI>1). Synergism is further separated into very strong synergism (<0.1), strong synergism (0.1-0.3), synergism (0.3-0.7), moderate synergism (0.7-0.85), and slight synergism (0.85-0.9).

U2932 = system: U2932
Method: as §1, §2, §3, §4, §5

OCI-LY-10 = system: OCI-LY-10
Method: as §1, §2, §3, §4, §5

OCI-LY-3 = system: OCI-LY-3
Method: as §1, §2, §3, §4, §5

SU-DHL-2 = system: SU-DHL-2
Method: as §1, §2, §3, §4, §5

[1] = ibrutinib 0 nM, IDH1i 10 uM / MALT1i 200 nM alone
[2] = ibrutinib 0.0256 nM, IDH1i 10 uM / MALT1i 200 nM / medium alone
[3] = ibrutinib 0.128 nM, IDH1i 10 uM / MALT1i 200 nM / medium alone
[4] = ibrutinib 0.64 nM, IDH1i 10 uM / MALT1i 200 nM / medium alone
[5] = ibrutinib 3.2 nM, IDH1i 10 uM / MALT1i 200 nM / medium alone
[6] = ibrutinib 16 nM, IDH1i 10 uM / MALT1i 200 nM / medium alone
[7] = ibrutinib 80 nM, IDH1i 10 uM / MALT1i 200 nM / medium alone
[8] = ibrutinib 400 nM, IDH1i 10 uM / MALT1i 200 nM / medium alone
[9] = ibrutinib 2000 nM, IDH1i 10 uM / MALT1i 200 nM / medium alone
[10] = ibrutinib 10000 nM, IDH1i 10 uM / MALT1i 200 nM / medium alone
[11] = ibrutinib 0 nM, IDH1i 10 uM / MALT1i 5 uM alone
[12] = ibrutinib 0.0256 nM, IDH1i 10 uM / MALT1i 5 uM / medium alone
[13] = ibrutinib 0.128 nM, IDH1i 10 uM / MALT1i 5 uM / medium alone
[14] = ibrutinib 0.64 nM, IDH1i 10 uM / MALT1i 5 uM / medium alone
[15] = ibrutinib 3.2 nM, IDH1i 10 uM / MALT1i 5 uM / medium alone
[16] = ibrutinib 16 nM, IDH1i 10 uM / MALT1i 5 uM / medium alone
[17] = ibrutinib 80 nM, IDH1i 10 uM / MALT1i 5 uM / medium alone
[18] = ibrutinib 400 nM, IDH1i 10 uM / MALT1i 5 uM / medium alone
[19] = ibrutinib 2000 nM, IDH1i 10 uM / MALT1i 5 uM / medium alone
[20] = ibrutinib 10000 nM, IDH1i 10 uM / MALT1i 5 uM / medium alone

Cc1ccccc1C(C(=O)NC1CCCCC1)N(C(=O)Cn1ccnc1C)c1cccc(F)c1 (centres unmarked) [AGI5198]
luminescence (CellTiter-Glo) (TMD8; ibrutinib 0 nM, IDH1i 10 uM / MALT1i 100 nM alone): 75993.70 | luminescence (CellTiter-Glo) (TMD8; ibrutinib 0.0256 nM, IDH1i 10 uM / MALT1i 100 nM / medium alone): 25500.80 | luminescence (CellTiter-Glo) (TMD8; ibrutinib 0.128 nM, IDH1i 10 uM / MALT1i 100 nM / medium alone): 25788.09 | luminescence (CellTiter-Glo) (TMD8; ibrutinib 0.64 nM, IDH1i 10 uM / MALT1i 100 nM / medium alone): 22928.31 | luminescence (CellTiter-Glo) (TMD8; ibrutinib 3.2 nM, IDH1i 10 uM / MALT1i 100 nM / medium alone): 23004.75 | luminescence (CellTiter-Glo) (TMD8; ibrutinib 16 nM, IDH1i 10 uM / MALT1i 100 nM / medium alone): 22519.77 | luminescence (CellTiter-Glo) (TMD8; ibrutinib 80 nM, IDH1i 10 uM / MALT1i 100 nM / medium alone): 22451.24 | luminescence (CellTiter-Glo) (TMD8; ibrutinib 400 nM, IDH1i 10 uM / MALT1i 100 nM / medium alone): 19936.75 | luminescence (CellTiter-Glo) (TMD8; ibrutinib 2000 nM, IDH1i 10 uM / MALT1i 100 nM / medium alone): 19649.45 | luminescence (CellTiter-Glo) (TMD8; ibrutinib 10000 nM, IDH1i 10 uM / MALT1i 100 nM / medium alone): 9604.64 | luminescence (CellTiter-Glo) (U2932; [1]): 52209.68 | luminescence (CellTiter-Glo) (U2932; [2]): 47490.41 | luminescence (CellTiter-Glo) (U2932; [3]): 48958.10 | luminescence (CellTiter-Glo) (U2932; [4]): 45155.81 | luminescence (CellTiter-Glo) (U2932; [5]): 46620.86 | luminescence (CellTiter-Glo) (U2932; [6]): 43920.00 | luminescence (CellTiter-Glo) (U2932; [7]): 43730.28 | luminescence (CellTiter-Glo) (U2932; [8]): 45769.76 | luminescence (CellTiter-Glo) (U2932; [9]): 43047.82 | luminescence (CellTiter-Glo) (U2932; [10]): 31970.32 | luminescence (CellTiter-Glo) (OCI-LY-10; [11]): 54469.95 | luminescence (CellTiter-Glo) (OCI-LY-10; [12]): 60402.37 | luminescence (CellTiter-Glo) (OCI-LY-10; [13]): 45182.13 | luminescence (CellTiter-Glo) (OCI-LY-10; [14]): 49163.38 | luminescence (CellTiter-Glo) (OCI-LY-10; [15]): 37017.16 | luminescence (CellTiter-Glo) (OCI-LY-10; [16]): 22951.32 | luminescence (CellTiter-Glo) (OCI-LY-10; [17]): 21796.92 | luminescence (CellTiter-Glo) (OCI-LY-10; [18]): 22543.73 | luminescence (CellTiter-Glo) (OCI-LY-10; [19]): 22738.32 | luminescence (CellTiter-Glo) (OCI-LY-10; [20]): 21999.40 | luminescence (CellTiter-Glo) (OCI-LY-3; [11]): 61813.89 | luminescence (CellTiter-Glo) (OCI-LY-3; [12]): 60845.63 | luminescence (CellTiter-Glo) (OCI-LY-3; [13]): 58171.75 | luminescence (CellTiter-Glo) (OCI-LY-3; [14]): 64267.34 | luminescence (CellTiter-Glo) (OCI-LY-3; [15]): 61774.53 | luminescence (CellTiter-Glo) (OCI-LY-3; [16]): 63970.82 | luminescence (CellTiter-Glo) (OCI-LY-3; [17]): 65372.05 | luminescence (CellTiter-Glo) (OCI-LY-3; [18]): 68413.28 | luminescence (CellTiter-Glo) (OCI-LY-3; [19]): 66282.58 | luminescence (CellTiter-Glo) (OCI-LY-3; [20]): 58163.88 | luminescence (CellTiter-Glo) (SU-DHL-2; [1]): 124126.7 | luminescence (CellTiter-Glo) (SU-DHL-2; [2]): 130906.9 | luminescence (CellTiter-Glo) (SU-DHL-2; [3]): 145229.1 | luminescence (CellTiter-Glo) (SU-DHL-2; [4]): 142615.3 | luminescence (CellTiter-Glo) (SU-DHL-2; [5]): 156751.0 | luminescence (CellTiter-Glo) (SU-DHL-2; [6]): 152240.5 | luminescence (CellTiter-Glo) (SU-DHL-2; [7]): 152613.5 | luminescence (CellTiter-Glo) (SU-DHL-2; [8]): 145121.4 | luminescence (CellTiter-Glo) (SU-DHL-2; [9]): 149634.6 | luminescence (CellTiter-Glo) (SU-DHL-2; [10]): 50666.3
